Experiments:
Assay in all cases: relative viability (nuclei count vs DMSO), 5 days (fraction); higher = more cells survive
[1] = compound: CS(=O)(=O)c1ccc(-c2cnc(N)c(C(=O)Nc3ccccc3)n2)cc1 [VE-821] + Cc1nc(NC(=O)N2CCC[C@H]2C(N)=O)sc1-c1ccnc(C(C)(C)C(F)(F)F)c1 [Alpelisib] (partner 2 µM)
Procedure, shortened: (§1)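 The day after seeding in 1536-well plates, lung cancer cell lines were treated by pin tool with a single drug, or with a fixed anchor-drug dose together with five library-drug doses (not always all listed) in √10 steps. After 5 days, a combined fix-and-stain solution (final 0.05% Triton X-100, 1% formaldehyde, 1 ug/ml Hoechst) was added. Nuclei counted on 4× images gave relative viability as treated counts over vehicle counts, reported as the median of duplicate plates.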

[2] = compound: CS(=O)(=O)c1ccc(-c2cnc(N)c(C(=O)Nc3ccccc3)n2)cc1 [VE-821] + Cc1nc(Nc2ncc(C(=O)Nc3c(C)cccc3Cl)s2)cc(N2CCN(CCO)CC2)n1 [Dasatinib] (partner 0.075 µM)
Procedure, shortened: as §1

[3] = compound: CS(=O)(=O)c1ccc(C(=O)Nc2ccc(Cl)c(-c3ccccn3)c2)c(Cl)c1 [Vismodegib] + COc1cccc2cc(-c3nc([C@H]4CC[C@H](C(=O)O)CC4)n4ncnc(N)c34)[nH]c12 [OSI-027] (partner 0.5 µM)
Procedure, shortened: as §1

[4] = compound: CS(=O)(=O)c1ccc(C(=O)Nc2ccc(Cl)c(-c3ccccn3)c2)c(Cl)c1 [Vismodegib] + Nc1nc2[nH]cc(CCc3ccc(C(=O)N[C@@H](CCC(=O)O)C(=O)O)cc3)c2c(=O)[nH]1 [Pemetrexed] (partner 0.2 µM)
Procedure, shortened: as §1

With NCI-H1993 the relative viability ([1]; first compound 0.08 µM) was 0.704, the relative viability ([1]; first compound 0.253 µM) was 0.757 and the relative viability ([1]; first compound 0.8 µM) was 0.655. It also gave a relative viability ([1]; first compound 2.53 µM) of 0.702, a relative viability ([1]; first compound 8 µM) of 0.633 and a relative viability ([2]; first compound 0.08 µM) of 0.563. For the same cell line, the relative viability ([2]; first compound 0.253 µM) was 0.503, the relative viability ([2]; first compound 0.8 µM) was 0.523 and the relative viability ([2]; first compound 2.53 µM) was 0.524. For the same cell line, the relative viability ([2]; first compound 8 µM) was 0.538, the relative viability ([3]; first compound 0.08 µM) was 0.572 and the relative viability ([3]; first compound 0.253 µM) was 0.479. The relative viability ([3]; first compound 0.8 µM) was 0.579, the relative viability ([3]; first compound 2.53 µM) was 0.562 and the relative viability ([3]; first compound 8 µM) was 0.594. For the same cell line, the relative viability ([4]; first compound 0.08 µM) was 0.559, the relative viability ([4]; first compound 0.253 µM) was 0.583 and the relative viability ([4]; first compound 0.8 µM) was 0.564. It also gave a relative viability ([4]; first compound 2.53 µM) of 0.68 and a relative viability ([4]; first compound 8 µM) of 0.63.
A-427 gave a relative viability ([1]; first compound 0.08 µM) of 1.01, a relative viability ([1]; first compound 0.253 µM) of 1.03 and a relative viability ([1]; first compound 0.8 µM) of 1.08. The relative viability ([1]; first compound 2.53 µM) was 1.12, the relative viability ([1]; first compound 8 µM) was 0.706 and the relative viability ([2]; first compound 0.08 µM) was 0.793. For the same cell line, the relative viability ([2]; first compound 0.253 µM) was 0.647, the relative viability ([2]; first compound 0.8 µM) was 0.657 and the relative viability ([2]; first compound 2.53 µM) was 0.652. The relative viability ([2]; first compound 8 µM) was 0.423, the relative viability ([3]; first compound 0.08 µM) was 0.471 and the relative viability ([3]; first compound 0.253 µM) was 0.464. It also gave a relative viability ([3]; first compound 0.8 µM) of 0.446, a relative viability ([3]; first compound 2.53 µM) of 0.405 and a relative viability ([3]; first compound 8 µM) of 0.484. It also gave a relative viability ([4]; first compound 0.08 µM) of 1.08, a relative viability ([4]; first compound 0.253 µM) of 0.939 and a relative viability ([4]; first compound 0.8 µM) of 0.912. It also gave a relative viability ([4]; first compound 2.53 µM) of 1.01 and a relative viability ([4]; first compound 8 µM) of 0.902.
In the case of NCI-H2347, the relative viability ([1]; first compound 0.08 µM) is reported as 1.08, the relative viability ([1]; first compound 0.253 µM) is reported as 0.997 and the relative viability ([1]; first compound 0.8 µM) is reported as 0.916. The relative viability ([1]; first compound 2.53 µM) was 1.18, the relative viability ([1]; first compound 8 µM) was 0.977 and the relative viability ([2]; first compound 0.08 µM) was 0.299. For the same cell line, the relative viability ([2]; first compound 0.253 µM) was 0.319, the relative viability ([2]; first compound 0.8 µM) was 0.344 and the relative viability ([2]; first compound 2.53 µM) was 0.329. It also gave a relative viability ([2]; first compound 8 µM) of 0.262, a relative viability ([3]; first compound 0.08 µM) of 0.568 and a relative viability ([3]; first compound 0.253 µM) of 0.454. It also gave a relative viability ([3]; first compound 0.8 µM) of 0.304, a relative viability ([3]; first compound 2.53 µM) of 0.425 and a relative viability ([3]; first compound 8 µM) of 0.454. The relative viability ([4]; first compound 0.08 µM) was 0.423, the relative viability ([4]; first compound 0.253 µM) was 0.423 and the relative viability ([4]; first compound 0.8 µM) was 0.459. It also gave a relative viability ([4]; first compound 2.53 µM) of 0.435 and a relative viability ([4]; first compound 8 µM) of 0.458.
Work on BEN yielded a relative viability ([1]; first compound 0.08 µM) of 1.09, a relative viability ([1]; first compound 0.253 µM) of 1.01 and a relative viability ([1]; first compound 0.8 µM) of 0.877. It also gave a relative viability ([1]; first compound 2.53 µM) of 0.968, a relative viability ([1]; first compound 8 µM) of 0.976 and a relative viability ([2]; first compound 0.08 µM) of 0.31. For the same cell line, the relative viability ([2]; first compound 0.253 µM) was 0.337, the relative viability ([2]; first compound 0.8 µM) was 0.282 and the relative viability ([2]; first compound 2.53 µM) was 0.291. For the same cell line, the relative viability ([2]; first compound 8 µM) was 0.364, the relative viability ([3]; first compound 0.08 µM) was 0.336 and the relative viability ([3]; first compound 0.253 µM) was 0.308. For the same cell line, the relative viability ([3]; first compound 0.8 µM) was 0.272, the relative viability ([3]; first compound 2.53 µM) was 0.294 and the relative viability ([3]; first compound 8 µM) was 0.311. The relative viability ([4]; first compound 0.08 µM) was 0.679, the relative viability ([4]; first compound 0.253 µM) was 0.682 and the relative viability ([4]; first compound 0.8 µM) was 0.784. It also gave a relative viability ([4]; first compound 2.53 µM) of 0.754 and a relative viability ([4]; first compound 8 µM) of 0.737.
In the case of NCI-H23, the relative viability ([1]; first compound 0.08 µM) is reported as 0.734, the relative viability ([1]; first compound 0.253 µM) is reported as 0.69 and the relative viability ([1]; first compound 0.8 µM) is reported as 0.512. It also gave a relative viability ([1]; first compound 2.53 µM) of 0.624, a relative viability ([1]; first compound 8 µM) of 0.416 and a relative viability ([2]; first compound 0.08 µM) of 0.881. For the same cell line, the relative viability ([2]; first compound 0.253 µM) was 0.746, the relative viability ([2]; first compound 0.8 µM) was 0.78 and the relative viability ([2]; first compound 2.53 µM) was 0.603. It also gave a relative viability ([2]; first compound 8 µM) of 0.283, a relative viability ([3]; first compound 0.08 µM) of 0.745 and a relative viability ([3]; first compound 0.253 µM) of 0.742. For the same cell line, the relative viability ([3]; first compound 0.8 µM) was 0.599, the relative viability ([3]; first compound 2.53 µM) was 0.464 and the relative viability ([3]; first compound 8 µM) was 0.438. For the same cell line, the relative viability ([4]; first compound 0.08 µM) was 0.7, the relative viability ([4]; first compound 0.253 µM) was 0.539 and the relative viability ([4]; first compound 0.8 µM) was 0.569. For the same cell line, the relative viability ([4]; first compound 2.53 µM) was 0.639 and the relative viability ([4]; first compound 8 µM) was 0.65.
For LU99A, the relative viability ([1]; first compound 0.08 µM) was 0.585, the relative viability ([1]; first compound 0.253 µM) was 0.512 and the relative viability ([1]; first compound 0.8 µM) was 0.444. The relative viability ([1]; first compound 2.53 µM) was 0.414, the relative viability ([1]; first compound 8 µM) was 0.277 and the relative viability ([2]; first compound 0.08 µM) was 0.552. The relative viability ([2]; first compound 0.253 µM) was 0.562, the relative viability ([2]; first compound 0.8 µM) was 0.551 and the relative viability ([2]; first compound 2.53 µM) was 0.571. It also gave a relative viability ([2]; first compound 8 µM) of 0.303, a relative viability ([3]; first compound 0.08 µM) of 0.35 and a relative viability ([3]; first compound 0.253 µM) of 0.271. The relative viability ([3]; first compound 0.8 µM) was 0.24, the relative viability ([3]; first compound 2.53 µM) was 0.278 and the relative viability ([3]; first compound 8 µM) was 0.287. The relative viability ([4]; first compound 0.08 µM) was 0.187, the relative viability ([4]; first compound 0.253 µM) was 0.164 and the relative viability ([4]; first compound 0.8 µM) was 0.246. The relative viability ([4]; first compound 2.53 µM) was 0.163 and the relative viability ([4]; first compound 8 µM) was 0.176.
Work on SW 1573 yielded a relative viability ([1]; first compound 0.08 µM) of 1.07, a relative viability ([1]; first compound 0.253 µM) of 0.713 and a relative viability ([1]; first compound 0.8 µM) of 0.745. For the same cell line, the relative viability ([1]; first compound 2.53 µM) was 0.888, the relative viability ([1]; first compound 8 µM) was 0.774 and the relative viability ([2]; first compound 0.08 µM) was 0.49. It also gave a relative viability ([2]; first compound 0.253 µM) of 0.573, a relative viability ([2]; first compound 0.8 µM) of 0.551 and a relative viability ([2]; first compound 2.53 µM) of 0.503. For the same cell line, the relative viability ([2]; first compound 8 µM) was 0.218, the relative viability ([3]; first compound 0.08 µM) was 0.742 and the relative viability ([3]; first compound 0.253 µM) was 0.595. For the same cell line, the relative viability ([3]; first compound 0.8 µM) was 0.682, the relative viability ([3]; first compound 2.53 µM) was 0.521 and the relative viability ([3]; first compound 8 µM) was 0.574. For the same cell line, the relative viability ([4]; first compound 0.08 µM) was 0.79, the relative viability ([4]; first compound 0.253 µM) was 0.894 and the relative viability ([4]; first compound 0.8 µM) was 0.764. It also gave a relative viability ([4]; first compound 2.53 µM) of 0.855 and a relative viability ([4]; first compound 8 µM) of 0.865.
In the case of NCI-H2009, the relative viability ([1]; first compound 0.08 µM) is reported as 1.11, the relative viability ([1]; first compound 0.253 µM) is reported as 1.18 and the relative viability ([1]; first compound 0.8 µM) is reported as 1.12. For the same cell line, the relative viability ([1]; first compound 2.53 µM) was 1.19, the relative viability ([1]; first compound 8 µM) was 1.28 and the relative viability ([2]; first compound 0.08 µM) was 0.332. For the same cell line, the relative viability ([2]; first compound 0.253 µM) was 0.263, the relative viability ([2]; first compound 0.8 µM) was 0.212 and the relative viability ([2]; first compound 2.53 µM) was 0.26. The relative viability ([2]; first compound 8 µM) was 0.16, the relative viability ([3]; first compound 0.08 µM) was 0.688 and the relative viability ([3]; first compound 0.253 µM) was 0.619. For the same cell line, the relative viability ([3]; first compound 0.8 µM) was 0.612, the relative viability ([3]; first compound 2.53 µM) was 0.608 and the relative viability ([3]; first compound 8 µM) was 0.738. For the same cell line, the relative viability ([4]; first compound 0.08 µM) was 1.02, the relative viability ([4]; first compound 0.253 µM) was 1.03 and the relative viability ([4]; first compound 0.8 µM) was 1.03. For the same cell line, the relative viability ([4]; first compound 2.53 µM) was 0.941 and the relative viability ([4]; first compound 8 µM) was 0.965.
